This note sets out measurements from article PMC12124388, “High-affinity PQQ import is widespread in Gram-negative bacteria” (Science Advances, 2025).

For test [1], the target named is T1, PqqU (formerly YncD) (Escherichia coli, UniProt P76115).
T1 construct: 10xHis-tagged PqqU from pET-20b-pqqU, expressed in E. coli BL21 (DE3) C41, purified from membranes (DDM or LMNG), 76 kDa monomer; 700 residues in full, 39-699 modelled
T1 sequence (P76115 24-700): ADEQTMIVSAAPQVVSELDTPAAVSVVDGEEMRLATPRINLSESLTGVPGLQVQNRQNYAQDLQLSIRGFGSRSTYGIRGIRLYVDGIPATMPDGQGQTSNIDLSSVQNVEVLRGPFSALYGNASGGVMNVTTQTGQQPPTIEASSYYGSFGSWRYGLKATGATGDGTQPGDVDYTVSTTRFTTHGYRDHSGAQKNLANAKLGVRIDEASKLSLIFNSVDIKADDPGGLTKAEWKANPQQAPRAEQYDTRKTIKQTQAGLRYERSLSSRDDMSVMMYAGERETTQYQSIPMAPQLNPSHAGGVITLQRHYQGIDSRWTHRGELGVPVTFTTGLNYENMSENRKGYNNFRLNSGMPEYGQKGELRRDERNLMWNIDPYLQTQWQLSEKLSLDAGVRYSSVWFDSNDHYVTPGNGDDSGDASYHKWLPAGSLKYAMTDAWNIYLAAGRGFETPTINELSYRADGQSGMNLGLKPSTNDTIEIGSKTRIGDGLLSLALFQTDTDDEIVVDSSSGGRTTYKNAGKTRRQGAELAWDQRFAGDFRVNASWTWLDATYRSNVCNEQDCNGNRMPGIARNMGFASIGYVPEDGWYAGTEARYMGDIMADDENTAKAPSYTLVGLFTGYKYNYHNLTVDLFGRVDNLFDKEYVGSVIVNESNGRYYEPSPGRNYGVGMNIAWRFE
The test is described as follows: isothermal titration calorimetry. Format: binding. To be noted: 50 mM tris-HCl pH 7.4, 150 mM NaCl; LMNG-purified, excess detergent removed; PQQ as disodium salt, oxidized; curve not accurately fitted, Kd only stated as low to subnanomolar range. (In general: Isothermal titration calorimetry measures the heat released or taken up as one component is titrated into another.)

Test [2] deals with T1, PqqU (formerly YncD). The test is described as follows: cryo-EM structure of complex, […] Å. It counts as binding. The following applies: 43 μM PqqU with 910 μM PQQ; LMNG micelle; single PQQ in internal extracellular-side cavity, loops 7 and 8 closed; no metal bound to PQQ.

For the molecule `O=C(O)c1cc(C(=O)O)c2c(n1)C(=O)C(=O)c1cc(C(=O)O)[nH]c1-2` [PQQ], in test [1], the Kd result is recorded as “likely with a Kd in the low to subnanomolar range”. Besides, the “cryo-EM structure of complex, 1.99 Å” value in test [2] was “we used cryo-EM to resolve the structure of the PqqU-PQQ complex”.
